Measured values: patent US11401286B2 (Tetra Discovery Partners, LLC, priority 2012, dated 2022)
Structures can show the parent of a compound that is named as a salt. Where two headings read alike, the source gives them in different places.

Target: PDE4D7 (Homo sapiens (Human), UniProt Q08499)
[1] = read-out: PDE4D7 IC50, PDE4D7 without asterisk

Sequence of PDE4D7 (Q08499 other isoform, or with tags, fused parts or gaps): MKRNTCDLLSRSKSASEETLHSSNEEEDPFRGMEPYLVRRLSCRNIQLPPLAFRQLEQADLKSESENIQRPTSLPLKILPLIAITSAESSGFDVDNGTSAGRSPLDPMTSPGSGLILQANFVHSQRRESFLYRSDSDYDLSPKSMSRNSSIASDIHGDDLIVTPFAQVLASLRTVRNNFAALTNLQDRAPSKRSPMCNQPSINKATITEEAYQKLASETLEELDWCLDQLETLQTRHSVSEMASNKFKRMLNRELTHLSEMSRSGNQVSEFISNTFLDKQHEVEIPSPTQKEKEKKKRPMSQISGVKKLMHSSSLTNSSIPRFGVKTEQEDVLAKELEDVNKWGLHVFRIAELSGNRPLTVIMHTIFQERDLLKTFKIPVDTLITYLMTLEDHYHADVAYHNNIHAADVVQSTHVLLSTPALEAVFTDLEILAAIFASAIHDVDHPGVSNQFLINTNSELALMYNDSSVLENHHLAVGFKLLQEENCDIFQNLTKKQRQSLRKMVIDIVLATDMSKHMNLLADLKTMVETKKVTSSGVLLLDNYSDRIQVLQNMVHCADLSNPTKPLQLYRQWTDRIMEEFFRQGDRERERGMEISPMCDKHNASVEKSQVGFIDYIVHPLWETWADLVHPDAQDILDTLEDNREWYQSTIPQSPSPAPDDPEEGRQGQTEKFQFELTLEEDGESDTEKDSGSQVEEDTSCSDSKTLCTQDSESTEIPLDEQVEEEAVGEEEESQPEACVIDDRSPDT

Structure (SMILES) | IC50 [1] | further results
OCCc1ccc(Nc2cc(-c3cccc(Cl)c3)nc3c2CCC3)cc1 [Example 6, 2-[4-[[2-(3-Chlorophenyl)-6,7-dihydro-5H-cyclopenta[b]pyridin-4-yl]amino]phenyl]ethanol] | > 1000 nM | –
CCc1nc(Nc2ccc(CC(=O)O)cc2)nc(-c2ccc(Cl)s2)n1 [Example 27, 2-(4-((4-(5-chlorothiophen-2-yl)-6-ethyl-1,3,5-triazin-2-yl)amino)phenyl)acetic acid] | > 1000 nM | –
NC(=O)Cc1ccc(Nc2cc(C3CCCCC3)nc3c2CCC3)cc1 [Example 250, 2-(4-((2-Cyclohexyl-6,7-dihydro-5H-cyclopenta[b]pyridin-4-yl)amino)phenyl)acetamide hydrochloride] | > 1000 nM | –
NC(=O)Cc1ccc(Nc2nc(-c3cccc(Cl)c3)nc3c2S(=O)(=O)CC3)cc1 [Example 282, 2-(4-((2-(3-chlorophenyl)-5,5-dioxido-6,7-dihydrothieno[3,2-d]pyrimidin-4-yl)amino)phenyl)acetamide] | > 1000 nM | –
COC(=O)Cc1ccc(Nc2nc(Cl)nc(-c3ccc(Cl)s3)n2)cc1 [Example 35, methyl 2-(4-((4-chloro-6-(5-chlorothiophen-2-yl)-1,3,5-triazin-2-yl)amino)phenyl)acetate] | > 1000 nM | –
CCc1c(C)nc(-c2ccc(Cl)s2)nc1Nc1ccc2c(c1)CS(=O)(=O)C2 [Example 312, 2-(5-Chloro-2-thienyl)-N-(2,2-dioxo-1,3-dihydro-2-benzothiophen-5-yl)-5-ethyl-6-methyl-pyrimidin-4-amine] | > 1000 nM | –
CC(O)Cc1ccc(Nc2nc(-c3cccc(Cl)c3)nc3c2CCC3)cc1 (stereo not shown) [Example 165, 1-(4-((2-(3-Chlorophenyl)-6,7-dihydro-5H-cyclopenta[d]pyrimidin-4-yl)amino)phenyl)propan-2-ol] | > 1000 nM | –
CCc1c(C)nc(-c2ccc(Cl)s2)nc1Nc1ccc(CC(=O)NC#N)cc1 [Example 301, 2-[4-[[2-(5-Chloro-2-thienyl)-5-ethyl-6-methyl-pyrimidin-4-yl]amino]phenyl]-N-cyano-acetamide] | > 1000 nM | –
CCc1cc(Cc2ccc(CC(=O)NCCO)cc2)nc(-c2cccc(Cl)c2)n1 [Example 195, 2-(4-((2-(3-chlorophenyl)-6-ethylpyrimidin-4-yl)methyl)phenyl)-N-(2-hydroxyethyl)acetamide] | < 1000 nM | –
CN(c1ccc(CC(N)=O)cc1)c1cc(-c2cccc(Cl)c2)nc2c1CCC2 [Example 118, 2-(4-((2-(3-Chlorophenyl)-6,7-dihydro-5H-cyclopenta[b]pyridin-4-yl)(methyl)amino)phenyl)acetamide] | – | IC50: > 1000 nM
NC(=O)CCc1ccc(Nc2nc(-c3cccc(Cl)c3)nc3c2CCC3)cc1 [Example 167, 3-(4-((2-(3-Chlorophenyl)-6,7-dihydro-5H-cyclopenta[d]pyrimidin-4-yl)amino)phenyl)propanamide] | > 1000 nM | –
NC(=O)Cc1ccc(Nc2ccnc(-c3cccc(Cl)c3)c2)cc1 [Example 83, 2-(4-((2-(3-Chlorophenyl)pyridin-4-yl)amino)phenyl)acetamide hydrochloride] | > 1000 nM | –
O=C(O)Cc1ccc(Oc2nc(-c3cccc(Cl)c3)nc(C3CC3)n2)cc1 [Example 43, 2-(4-((4-(3-chlorophenyl)-6-cyclopropyl-1,3,5-triazin-2-yl)oxy)phenyl)acetic acid] | > 1000 nM | –
OCCc1ccc(Nc2cc(-c3ccc(Cl)cc3)nc3c2CCC3)cc1 [Example 149, 2-(4-((2-(4-Chlorophenyl)-6,7-dihydro-5H-cyclopenta[b]pyridin-4-yl)amino)phenyl)ethanol hydrochloride] | > 1000 nM | –
OCCc1ccc(Cc2cc(C(F)(F)F)nc(C3CCCC3)n2)cc1 [Example 231, 2-(4-((2-Cyclopentyl-6-(trifluoromethyl)pyrimidin-4-yl)methyl)phenyl)ethanol] | > 1000 nM | –
NC(=O)Cc1cccc(Nc2cc(-c3cccc(Cl)c3)nc3c2CCC3)c1 [Example 101, 2-(3-((2-(3-Chlorophenyl)-6,7-dihydro-5H-cyclopenta[b]pyridin-4-yl)amino)phenyl)acetamide hydrochloride] | > 1000 nM | –
NS(=O)(=O)Cc1ccc(Nc2nc(-c3cccc(Cl)c3)nc3c2CCC3)cc1 [Example 180, (4-((2-(3-Chlorophenyl)-6,7-dihydro-5H-cyclopenta[d]pyrimidin-4-yl)amino)phenyl)methanesulfonamide] | > 1000 nM | –
NC(=O)Cc1ccc(Nc2cc(SC3CCCC3)nc3c2CCC3)cc1 [Example 258, 2-(4-((2-(Cyclopentylthio)-6,7-dihydro-5H-cyclopenta[b]pyridin-4-yl)amino)phenyl)acetamide] | > 1000 nM | –
CCc1cc(Nc2ccc(CCO)cc2)nc(-c2cccc(Cl)c2)n1 [Example 191, 2-(4-((2-(3-chlorophenyl)-6-ethylpyrimidin-4-yl)amino)phenyl)ethanol] | – | IC50 (read-out: PDE4D7 IC50): < 1000 nM

Second part, led by results:

IC50 [1] | Structure (SMILES) | further results
> 1000 nM | OCC(O)c1ccc(Nc2cc(-c3cccc(Cl)c3)nc3c2CCC3)cc1 (stereo not shown) [Example 115, 1-(4-((2-(3-Chlorophenyl)-6,7-dihydro-5H-cyclopenta[b]pyridin-4-yl)amino)phenyl)ethane-1,2-diol hydrochloride] | –
> 1000 nM | Cc1ccc(Cc2nc(-c3cccc(Cl)c3)nc3c2CCC3)cc1 [Example 69, 2-(3-Chlorophenyl)-4-(4-methylbenzyl)-6,7-dihydro-5H-cyclopenta[d]pyrimidine] | –
> 1000 nM | CC(CO)Oc1ccc(Nc2cc(-c3cccc(Cl)c3)nc3c2CCC3)cc1 (stereo not shown) [Example 117, 2-(4-((2-(3-Chlorophenyl)-6,7-dihydro-5H-cyclopenta[b]pyridin-4-yl)amino)phenoxy)propan-1-ol hydrochloride] | –
> 1000 nM | CC(C)(C(=O)O)c1ccc(Cc2cc(-c3cccc(Cl)c3)nc3c2CCC3)cc1 [Example 126, 2-(4-((2-(3-Chlorophenyl)-6,7-dihydro-5H-cyclopenta[b]pyridin-4-yl)methyl)phenyl)-2-methylpropanoic acid hydrochloride] | –
> 1000 nM | C[C@H](O)Cc1ccc(Nc2cc(-c3cccc(Cl)c3)nc3c2CCC3)cc1 [Example 107, (S)-1-(4-((2-(3-Chlorophenyl)-6,7-dihydro-5H-cyclopenta[b]pyridin-4-yl)amino)phenyl)propan-2-ol] | –
< 1000 nM | OCCc1ccc(Nc2cc(-c3cccc(Cl)c3)nc(C(F)(F)F)c2)cc1 [Example 146, 2-(4-((2-(3-Chlorophenyl)-6-(trifluoromethyl)pyridin-4-yl)amino)phenyl)ethanol] | –
> 1000 nM | C[C@@H](O)Cc1ccc(Nc2cc(-c3cccc(Cl)c3)nc3c2CCC3)cc1 [Example 106, (R)-1-(4-((2-(3-Chlorophenyl)-6,7-dihydro-5H-cyclopenta[b]pyridin-4-yl)amino)phenyl)propan-2-ol] | –
< 1000 nM | NC(=O)Cc1ccc(Nc2nc(-c3cccc(Cl)c3)nc3c2SCC3)cc1 [Example 280, 2-(4-((2-(3-chlorophenyl)-6,7-dihydrothieno[3,2-d]pyrimidin-4-yl)amino)phenyl)acetamide] | –
< 1000 nM | O=S1(=O)CCc2nc(-c3cccc(Cl)c3)nc(Nc3ccc(CCO)cc3)c21 [Example 281, 2-(3-Chlorophenyl)-4-((4-(2-hydroxyethyl)phenyl)amino)-6,7-dihydrothieno[3,2-d]pyrimidine 5,5-dioxide] | –
< 1000 nM | CCc1nc(Nc2ccc(C#N)cc2)nc(-c2cccc(Cl)c2)n1 [Example 51, 4-(4-(3-chlorophenyl)-6-ethyl-1,3,5-triazin-2-ylamino)benzonitrile] | –
> 1000 nM | CCOC(=O)Cc1ccc(Nc2cc(C3CC3)nc(-c3cccc(Cl)c3)n2)nc1 [Example 211, Ethyl 2-(6-((2-(3-chlorophenyl)-6-cyclopropylpyrimidin-4-yl)amino)pyridin-3-yl)acetate] | –
> 1000 nM | NC(=O)Cc1ccc(Cc2cc(-c3cccc(Cl)c3)nc3c2CCC3)cc1 [Example 125, 2-(4-((2-(3-Chlorophenyl)-6,7-dihydro-5H-cyclopenta[b]pyridin-4-yl)methyl)phenyl)acetamide hydrochloride] | –
> 1000 nM | OCCc1ccc(Nc2cc(-c3ccco3)nc3c2CCC3)cc1 [Example 239, 2-(4-((2-(furan-2-yl)-6,7-dihydro-5H-cyclopenta[b]pyridin-4-yl)amino)phenyl)ethanol hydrochloride] | –
> 1000 nM | OCCc1ccc(Nc2cc(-c3ccsc3)nc3c2CCC3)cc1 [Example 243, 2 2-(4-((2-(Thiophen-3-yl)-6,7-dihydro-5H-cyclopenta[b]pyridin-4-yl)amino)phenyl)ethanol] | –
> 1000 nM | Cc1nc(Nc2ccc(F)cc2)nc(-c2ccc(Cl)s2)n1 [Example 23, 4-(5-chlorothiophen-2-yl)-N-(4-fluorophenyl)-6-methyl-1,3,5-triazin-2-amine] | –
> 1000 nM | NC(=O)Cc1ccc(Nc2cc(N3CCCC3)nc3c2CCC3)cc1 [Example 236, 2-(4-((2-(Pyrrolidin-1-yl)-6,7-dihydro-5H-cyclopenta[b]pyridin-4-yl)amino)phenyl)acetamide hydrochloride] | –
< 1000 nM | CCc1cc(Cc2ccc(Cn3cc(Cl)cn3)cc2)nc(-c2cccc(Cl)c2)n1 [Example 190, 4-(4-((4-Chloro-1H-pyrazol-1-yl)methyl)benzyl)-2-(3-chlorophenyl)-6-ethylpyrimidine] | –
< 1000 nM | O=S1(=O)CCCc2nc(-c3cccc(Cl)c3)nc(Nc3ccc(CCO)cc3)c21 [Example 273, 2-(3-Chlorophenyl)-4-((4-(2-hydroxyethyl)phenyl)amino)-7,8-dihydro-6H-thiopyrano[3,2-d]pyrimidine 5,5-dioxide] | –
< 1000 nM | NC(=O)Cc1ccc(Nc2nc(C3CCCC3)nc3c2SCCC3)cc1 [Example 284, 2-(4-((2-cyclopentyl-7,8-dihydro-6H-thiopyrano[3,2-d]pyrimidin-4-yl)amino)phenyl)acetamide] | –
< 1000 nM | CCc1cc(Cc2ccc(CC(N)=O)cc2)nc(-c2cccc(Cl)c2)n1 [Example 65, 2-(4-((2-(3-Chlorophenyl)-6-ethylpyrimidin-4-yl)methyl)phenyl)acetamide] | –
< 1000 nM | OCCc1ccc(Nc2nc(-c3cccc(Cl)c3)nc3c2CCC3)cc1 [Example 162, 2-(4-((2-(3-Chlorophenyl)-6,7-dihydro-5H-cyclopenta[d]pyrimidin-4-yl)amino)phenyl)ethanol] | –
